Reference: PMC11027885, “Utilizing surface plasmon resonance as a novel method for monitoring in-vitro P-glycoprotein efflux” (Frontiers in biophysics, 2024)
Where a name gives a salt, the structure may show the parent alone. Read-outs that look alike come from different tables or passages of the source.

Columns and labels:
Pgp = system: Pgp; design: method as in Doan et al. (2002); conditions: drug accumulation assay, MDR1-MDCKII cells; ref Doan et al. (2002); cited from earlier work
Pgp (Abcb1a, MDR3) = Pgp (Abcb1a, MDR3) (Mus musculus, UniProt P21447); assay: in vitro; conditions: pH 7.4
mouse Pgp (Abcb1a, MDR3) = mouse Pgp (Abcb1a, MDR3) (Mus musculus, UniProt P21447); assay: ATPase assay (Chifflet method), Pgp reconstituted in liposomes
mouse Pgp (Abcb1a, MDR3), sequence (P21447 whole entry): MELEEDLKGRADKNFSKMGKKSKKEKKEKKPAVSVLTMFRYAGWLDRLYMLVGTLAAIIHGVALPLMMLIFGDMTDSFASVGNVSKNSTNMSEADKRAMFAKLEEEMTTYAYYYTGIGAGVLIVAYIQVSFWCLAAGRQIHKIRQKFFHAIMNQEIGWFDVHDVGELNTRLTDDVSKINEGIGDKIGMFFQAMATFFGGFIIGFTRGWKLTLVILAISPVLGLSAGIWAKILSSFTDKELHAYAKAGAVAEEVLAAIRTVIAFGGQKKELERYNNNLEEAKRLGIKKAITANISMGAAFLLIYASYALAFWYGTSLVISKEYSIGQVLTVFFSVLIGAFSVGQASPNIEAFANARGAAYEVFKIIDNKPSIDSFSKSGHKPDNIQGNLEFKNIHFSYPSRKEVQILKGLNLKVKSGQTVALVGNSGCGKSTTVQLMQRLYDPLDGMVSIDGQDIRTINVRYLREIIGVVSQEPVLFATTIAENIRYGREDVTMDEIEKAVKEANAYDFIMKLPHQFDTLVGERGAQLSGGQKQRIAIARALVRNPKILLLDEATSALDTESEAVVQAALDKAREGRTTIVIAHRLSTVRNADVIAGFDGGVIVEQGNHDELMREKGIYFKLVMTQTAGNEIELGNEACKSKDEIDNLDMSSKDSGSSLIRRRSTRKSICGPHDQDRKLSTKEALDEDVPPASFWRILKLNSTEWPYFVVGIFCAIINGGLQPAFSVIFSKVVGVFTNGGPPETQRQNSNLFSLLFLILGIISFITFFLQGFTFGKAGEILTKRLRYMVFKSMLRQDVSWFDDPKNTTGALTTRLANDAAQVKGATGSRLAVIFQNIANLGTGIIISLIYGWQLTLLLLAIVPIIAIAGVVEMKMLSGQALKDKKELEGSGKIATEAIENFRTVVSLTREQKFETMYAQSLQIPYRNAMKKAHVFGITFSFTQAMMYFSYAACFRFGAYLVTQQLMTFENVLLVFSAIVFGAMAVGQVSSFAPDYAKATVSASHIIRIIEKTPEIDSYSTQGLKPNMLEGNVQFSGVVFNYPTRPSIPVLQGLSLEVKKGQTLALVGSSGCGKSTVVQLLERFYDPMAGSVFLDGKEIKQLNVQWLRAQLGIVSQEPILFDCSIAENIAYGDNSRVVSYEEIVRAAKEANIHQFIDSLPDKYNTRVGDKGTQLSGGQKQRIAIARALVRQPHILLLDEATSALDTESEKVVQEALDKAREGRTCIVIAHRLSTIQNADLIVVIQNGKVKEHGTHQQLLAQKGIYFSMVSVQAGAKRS

Pgp (Abcb1a, MDR3), sequence (P21447 whole entry): as above

For CNCCCN1c2ccccc2CCc2ccccc21 [Desipramine, desipramine hydrochloride], the “Pgp efflux ratio (literature)” value (Pgp) is listed as 2, the koff (Pgp (Abcb1a, MDR3)) is listed as 129 s⁻¹ and the “vmax of Pgp ATP hydrolysis” value (mouse Pgp (Abcb1a, MDR3); 50 nM Pgp in liposomes, curve fit (Eq. 2 monophasic, Eq. 3 biphasic)) is listed as 904 ± 65 nmolmin^−1mg^−1. The “ATP hydrolysis activation profile” value (mouse Pgp (Abcb1a, MDR3); shape of ATPase kinetics curve) was “monophasic”.

With CCC(=O)C(CC(C)N(C)C)(c1ccccc1)c1ccccc1 (stereo not drawn) [Methadone, methadone hydrochloride] the “peak ATP hydrolysis rate” value (mouse Pgp (Abcb1a, MDR3)) was “approximately 800 nmolmin^−1mg^−1” and the “vmax of Pgp ATP hydrolysis” value (mouse Pgp (Abcb1a, MDR3)) was 849 ± 45 nmolmin^−1mg^−1.

For C=C[C@H]1C[N@@]2CC[C@H]1C[C@@H]2[C@@H](O)c1ccnc2ccc(OC)cc12 [Quinidine], the Ki (mouse Pgp (Abcb1a, MDR3)) was 131 ± 34 µM and the “peak ATP hydrolysis rate” value (mouse Pgp (Abcb1a, MDR3)) was “approximately 900 nmolmin^−1mg^−1”.

For [Na+].[Na+].[Na+].[O]=[V]([O-])([O-])[O-] [sodium orthovanadate, Sodium orthovanadate], the “Pgp ATPase activity in presence of inhibitor” value (mouse Pgp (Abcb1a, MDR3); decline from basal 482 ± 50) was “approximately 100 nmolmin^−1mg^−1”.
